# Measurements taken from patent US4973592A, “1,3-diazocycloalkenes as muscarinic receptor blocking agents” (Istituto de Angeli, priority 1987, dated 1990).
# Counter-ions that a name gives are not always drawn. Like-named read-outs stand apart in the source and are kept apart here.
# What was measured:
# [1] = target: T1, muscarinic receptors of the cerebral cortex (Rattus norvegicus, UniProt P08482); experiment: biochemical; parameters: species or system male CD-COOBBS rats; conditions: read-out: Antimuscarinic effect. Dissociation constants (KD) for ^3 H-pirenzepine binding
# T1 sequence (P08482 1-460): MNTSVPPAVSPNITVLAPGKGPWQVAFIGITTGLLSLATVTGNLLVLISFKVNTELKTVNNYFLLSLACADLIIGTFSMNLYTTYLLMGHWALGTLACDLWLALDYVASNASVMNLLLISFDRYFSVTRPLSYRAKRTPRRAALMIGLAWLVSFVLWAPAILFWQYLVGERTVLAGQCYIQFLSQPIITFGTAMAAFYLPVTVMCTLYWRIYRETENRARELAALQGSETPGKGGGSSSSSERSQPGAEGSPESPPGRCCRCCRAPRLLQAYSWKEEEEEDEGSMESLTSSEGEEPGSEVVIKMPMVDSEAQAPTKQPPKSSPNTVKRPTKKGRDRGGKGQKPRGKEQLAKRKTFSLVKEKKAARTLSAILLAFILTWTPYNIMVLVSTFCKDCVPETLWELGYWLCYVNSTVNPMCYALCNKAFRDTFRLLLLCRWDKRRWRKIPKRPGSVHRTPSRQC
# [2] = target: T2, isolated guinea pig ileum (bethanechol induced contractions) (Cavia porcellus, UniProt H0W1Z3); experiment: antispasmodic activity on isolated guinea pig ileum with bethanechol as spasmogen; parameters: species or system guinea pig (Dunkin Hartley); conditions: cumulative bethanechol 0.3-30 μM, antagonist 60 min before, Tyrode solution, 37° C.; KB from dose-ratio; read-out: Antispasmodic activity. Dissociation constants (KB) for bethanechol induced contractions in the guinea pig ileum
# T2 construct: a 2 cm piece of terminal ileum was rapidly excised; from tissue; host or cells: guinea pig terminal ileum (Dunkin Hartley)
# [3] = competition against 0.5 nM ^3 H-pirenzepine, rat cerebral cortex homogenate, 45 min at 30° C., pH 7.4, corrected for radioligand occupancy shift
# T2 sequence (H0W1Z3 1-590): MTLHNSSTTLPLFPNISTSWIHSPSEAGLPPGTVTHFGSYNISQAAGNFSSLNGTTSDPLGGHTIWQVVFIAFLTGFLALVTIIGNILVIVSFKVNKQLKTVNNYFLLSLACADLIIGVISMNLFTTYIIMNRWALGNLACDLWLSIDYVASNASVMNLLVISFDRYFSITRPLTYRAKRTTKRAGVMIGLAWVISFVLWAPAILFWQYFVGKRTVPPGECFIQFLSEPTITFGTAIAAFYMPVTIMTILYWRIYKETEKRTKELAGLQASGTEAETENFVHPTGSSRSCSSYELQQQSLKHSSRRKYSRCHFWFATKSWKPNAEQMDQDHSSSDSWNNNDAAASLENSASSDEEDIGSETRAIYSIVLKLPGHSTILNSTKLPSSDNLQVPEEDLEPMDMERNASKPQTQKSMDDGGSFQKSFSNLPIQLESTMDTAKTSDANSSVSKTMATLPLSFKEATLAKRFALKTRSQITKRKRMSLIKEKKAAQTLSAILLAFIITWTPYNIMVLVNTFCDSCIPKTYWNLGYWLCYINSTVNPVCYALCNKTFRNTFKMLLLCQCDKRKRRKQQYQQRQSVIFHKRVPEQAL
"Kd [1, 3] [nM]",Kb [2] [nM],Kd [1] [nM],Structure (SMILES)
14,6.2,,"OC(CCN1C=NCC1)(c1ccccc1)C1CCCCC1 (stereo not drawn) [Compound 23, 1-(3-phenyl-3-cyclohexyl-3-hydroxy)propyl-2-imidazoline hydrochloride]"
4.2,1,,"OC(CCN1C=NCCC1)(c1ccccc1)C1CCCCC1 (stereo not drawn) [Compound 1, 1-(3-Phenyl-3-cyclohexyl-3-hydroxy)propyl-1,4,5,6-tetrahydropyrimidine hydrochloride]"
,0.46,2.7,"NC1=NCC(OC(=O)C2(C3CCCCC3)CCCCC2)CN1 (stereo not drawn) [Compound 15, 2-Amino-1,4,5,6-tetrahydropyrimidin-5-yl 1-cyclohexylcyclohexane-1-carboxylate formate]"
7.4,3.4,,"CC1=NCCN1CCCC(O)(c1ccccc1)C1CCCCC1 (stereo not drawn) [Compound 21, 1-(4-Phenyl-4-cyclohexyl-4-hydroxy)butyl-2-methyl-2-imidazoline hydrochloride]"
5,1.5,,"OC(CCCN1C=NCCC1)(c1ccccc1)C1CCCCC1 (stereo not drawn) [Compound 22, 1-(4-Phenyl-4-cyclohexyl-4-hydroxy)butyl-1,4,5,6-tetrahydropyrimidine hydrochloride]"
3,1.7,,"CC1=NCCN1CCC(O)(c1ccccc1)C1CCCCC1 (stereo not drawn) [Compound 2, 1-(3-Phenyl-3-cyclohexyl-3-hydroxy)propyl-2-methyl-2-imidazoline hydrochloride]"
